Experimental data from patent publication US5470737A, “Stably-transformed cells expressing human thiopurine methyltransferase” (priority 1994, dated 1995).
Entries after “also recorded” stand apart in the source; their conditions may differ. Where two headings read alike, the source gives them in different places.

Experiments:
[1] = target: T1, TPMT, human kidney 100,000×g supernatant (Homo sapiens, UniProt P51580); assay: Panel of methyltransferase inhibitors and ions, human kidney 100,000×g supernatant; type: biochemical
T1 construct: renal tissue was homogenized in 5 mM potassium phosphate buffer, pH 7.5, with a Polytron homogenizer, and a 100,000×g supernatant was prepared; from tissue; host or cells: human kidney (renal tissue)
T1 sequence (P51580 1-245): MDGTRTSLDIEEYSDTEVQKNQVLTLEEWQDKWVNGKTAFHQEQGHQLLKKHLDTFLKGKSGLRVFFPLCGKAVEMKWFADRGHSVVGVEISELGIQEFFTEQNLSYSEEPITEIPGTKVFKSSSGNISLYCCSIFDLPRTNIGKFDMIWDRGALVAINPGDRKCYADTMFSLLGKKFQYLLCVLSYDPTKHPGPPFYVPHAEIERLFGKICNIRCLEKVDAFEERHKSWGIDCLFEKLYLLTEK
Description: Renal tissue was obtained either during autopsy or from patients undergoing clinically indicated nephrectomies. Hepatic tissue was obtained from patients who underwent clinically indicated partial hepatectomies for the removal of primary or metastatic hepatic tumors. All tissue was obtained under guidelines approved by the Mayo Clinic Institutional Review Board. Macroscopically normal tissue was stored at -80° C., conditions under which TPMT activity is stable (C. L. Szumlanski et al., Pharmacogenetics, 2, 148 (1992); J. A. Van Loon et al., Drug Met. Disposit., 18, 632 (1990)). Prior to enzyme purification, renal tissue was homogenized in 5 mM potassium phosphate buffer, pH 7.5, with a Polytron homogenizer, and a 100,000×g supernatant was prepared as described by L. C. Woodson et al., Biochem. Pharmacol., 32, 819 (1983). Amino acid sequence information was obtained with TPMT purified from human renal tissue--a tissue with a high specific activity for the enzyme.
(§1) TPMT activity in renal tissue was measured by the method of R. M. Weinshilboum et al., in Clin. Chim. Acta, 85, 323 (1978) as modified by L. C. Woodson et al., Biochem. Pharmacol., 32, 819 (1983) to assay the enzyme in human kidney preparations. […] Ado-Met as the methyl donor. Assay conditions for the measurement of TPMT in T84 human colon carcinoma cells and in COS-1 cells were identical with those used to measure the enzyme activity in human renal tissue. One unit of TPMT activity represented the formation of 1 nmol of 6-MMP per hr of incubation at 37° C.
(§2) Finally, the response of the TPMT expressed in COS-1 cells to a panel of methyltransferase inhibitors and ions was compared with that of TPMT activity in human kidney 100,000×g supernatant, partially purified human kidney Peak I TPMT and T84 cell TPMT (Table 3).

human kidney TPMT Peak I = target: T2, human kidney TPMT Peak I (Homo sapiens, UniProt P51580); assay: Panel of methyltransferase inhibitors and ions, human kidney Peak I TPMT; type: biochemical
T2 construct: Human renal tissue contains two isoforms of TPMT, Peak I and Peak II, that can be separated by DEAE ion exchange chromatography; from tissue; host or cells: human kidney, DEAE Peak I, gel filtration
T2 sequence (P51580 1-245): T1 sequence (P51580 1-245)
Excerpt: Human renal tissue contains two isoforms of TPMT, Peak I and Peak II, that can be separated by DEAE ion exchange chromatography as reported by J. A. Van Loon et al., Biochem. Genet., 20, 637 (1982). The two isoforms were separated by DEAE ion exchange chromatography, and the Peak I enzyme was then purified by gel filtration chromatography performed with Sephadex G-100 superfine as described by J. A. Van Loon et al., cited above. In some experiments, hydroxylapatite chromatography performed as described by J. A. Van Loon et al., in Biochem. Pharmacol., 44, 775 (1992) was added as a third purification step.
as §1, §2

T84 cell TPMT [2] = target: T3, T84 cell TPMT (Homo sapiens, UniProt P51580); assay: Panel of methyltransferase inhibitors and ions, T84 cell 100,000×g supernatant; type: biochemical
T3 construct: Cytosol from T84 cells did contain TPMT enzymatic activity; host or cells: T84 human colon carcinoma cells
T3 sequence (P51580 1-245): T1 sequence (P51580 1-245)
Description: as §1
T84 human colon carcinoma cells (American Type Culture Collection, Rockville, Md.) were grown to confluence in an equal volume mixture of Dulbecco's modified Eagle's medium (DMEM) and Ham's F12 media with 5% fetal calf serum. The cells were then harvested, cell pellets were washed in phosphate buffered saline (PBS), and the pellets were homogenized for 30 sec in 1 ml of 5 mM potassium phosphate buffer, pH 7.5, with a Polytron homogenizer. Homogenates of the cells were centrifuged at 100,000×g for 1 hr at 4° C., and the supernatant was used to assay TPMT activity and to determine selected biochemical properties of the enzyme.
as §2

[3] = target: T4, TPMT expressed in COS-1 cells transfected with T84 TPMT cDNA (Homo sapiens, UniProt P51580); assay: Panel of methyltransferase inhibitors and ions, COS-1 cells transfected with T84 TPMT cDNA; type: biochemical
T4 construct: digested with SstI to excise the coding region, the 5'-untranslated region and a portion (ca. 600 nucleotides) of the 3'-untranslated region; expressed in transfected cells; host or cells: COS-1 (simian), vector P91023(B)
T4 sequence (P51580 1-245): T1 sequence (P51580 1-245)
Description: (§3) TPMT activity in renal tissue was measured by the method of R. M. Weinshilboum et al., in Clin. Chim. Acta, 85, 323 (1978) as modified by L. C. Woodson et al., Biochem. Pharmacol., 32, 819 (1983) to assay the enzyme in human kidney preparations. […] Assay conditions for the measurement of TPMT in T84 human colon carcinoma cells and in COS-1 cells were identical with those used to measure the enzyme activity in human renal tissue. One unit of TPMT activity represented the formation of 1 nmol of 6-MMP per hr of incubation at 37° C.
Simian COS-1 cells were then plated in 100-mm dishes at a density of 1.5-1.8×10^6 cells/dish in DMEM with 10% fetal calf serum, and were allowed to grow overnight. Three dishes of cells were used for each transfection. Purified "sense" plasmid vector (0.5 μg) was mixed with DEAE-dextran and DMEM, and the mixture was added to the cell culture dishes, following the procedures of J. H. McCutchan et al., J. Natl. Cancer Inst., 41, 351 (1988) and R. J. Kaufman et al., Mol. Cell. Biol., 9, 946 (1989). Control cells were treated with no DNA, with expression vector alone, or with constructs that contained the cDNA clone in an antisense orientation. After 1 hr, the DNA-DEAE-dextran solution was replaced for 2 min with DMEM that contained 10% dimethylsulfoxide, followed by incubation for 2 hr in 0.1 mM chloroquine in DMEM following the procedure of H. Luthman et al., Nucl. Acids Res., 11, 1295 (1983). Cells were then grown for 40-42 hr in DMEM with 10% fetal calf serum. The cells from each transfection were harvested and pooled, cell pellets were washed in 5 ml of PBS, and the cell pellets were homogenized for 30 sec in 2 ml of 5 mM potassium phosphate buffer, pH 7.5. Homogenates were centrifuged at 15,000×g for 15 min at 4° C., supernatants from that step were centrifuged at 100,000×g for 1 hr at 4° C., and 0.25 μl aliquots of 100,000×g supernatant preparations were then assayed for transient expression of TPMT enzymatic activity.

TPMT [4] = target: T5, TPMT (Homo sapiens, UniProt P51580); assay: Inhibition of TPMT, all sources of enzyme (summary in words); type: biochemical
T5 construct: T84 cDNA transiently expressed in COS-1 cells, plus native human kidney 100,000×g supernatant, partially purified kidney Peak I and T84 cell enzyme
T5 sequence (P51580 1-245): T1 sequence (P51580 1-245)
Excerpt: as §2
As shown by the data in Table 3, the results were nearly identical for all sources of enzyme and each activity was inhibited by the TPMT reaction products, Ado-Hcy and 6-MMP. However, the enzyme was not affected by inhibitors of other methyltransferase enzymes.

[5] = test system: thiol methyltransferase (TMT); details: cited from earlier work
[6] = test system: catechol O-methyltransferase (COMT); details: cited from earlier work
[7] = test system: histamine N-methyltransferase (HNMT); details: cited from earlier work
human kidney TPMT = target: T6, human kidney TPMT (Homo sapiens, UniProt P51580); details: cited from earlier work
T6 construct: to assay the enzyme in human kidney preparations; host or cells: human kidney
T6 sequence (P51580 1-245): T1 sequence (P51580 1-245)

[8] = test system: patients with genetically low or undetectable RBC TPMT activity; details: patients lacking or with low TPMT activity; cited from earlier work
TPMT [9] = details: cited from earlier work
T84 cell TPMT [10] = target: T3, T84 cell TPMT; assay: TPMT biochemical characteristics: pH optimum and apparent Km, T84 cells; details: 150 mM potassium phosphate buffer, seven pH values 5.5 to 8.5
Description: as §3

[11] = tissue stored at -80° C.; cited from earlier work
[12] = substrate: C[S+](CC[C@H](N)C(=O)O)C[C@H]1O[C@@H](n2cnc3c(N)ncnc32)[C@H](O)[C@@H]1O; assay: purified protein, by the assay type; details: other: T84 cells; 3.4 mM 6-MP, Ado-Met 0.78 to 25 μM; 37.0 °C
[13] = substrate: Sc1ncnc2nc[nH]c12; assay: purified protein, by the assay type; details: other: T84 cells; 25 μM Ado-Met, 6-MP 0.11 to 6.8 mM; 37.0 °C
[14] = read-out: Activity Remaining, %

In the case of `Nc1ncnc2c1ncn2[C@@H]1O[C@H](CSCC[C@H](N)C(=O)O)[C@@H](O)[C@H]1O` [Ado-Hcy, S-adenosyl-L-homocysteine], the remaining activity at 100 µM [1, 14] is reported as 5%, the remaining activity at 100 µM (human kidney TPMT Peak I; [14]) is reported as 5% and the remaining activity at 100 µM (T84 cell TPMT [2]; [14]) is reported as 5%. For the same molecule, the remaining activity at 100 µM [3, 14] was 5% and the “effect on TPMT activity (in words)” value (TPMT [4]) was “inhibited”.

`CCCC(C(=O)OCCN(CC)CC)(c1ccccc1)c1ccccc1` [SKF-525A] gave a remaining activity at 500 µM ([1]; human kidney 100,000×g supernatant, 0.5 mM) of 107%, a remaining activity at 500 µM (human kidney TPMT Peak I; human kidney TPMT Peak I, 0.5 mM) of 98% and a remaining activity at 500 µM (T84 cell TPMT [2]; T84 cell 100,000×g supernatant, 0.5 mM) of 102%. The remaining activity at 500 µM ([3]; COS-1 cells transfected with T84 TPMT cDNA, 0.5 mM) was 101%, the “effect on TPMT activity (in words)” value (TPMT [4]) was “not affected” and the “inhibition of thiol methyltransferase (in words)” value [5] was “inhibitors of thiol methyltransferase”.

In the case of `[Ca+2].[Cl-].[Cl-]` [CaCl2], the “Activity Remaining, %” value ([1]; human kidney 100,000×g supernatant, 1 mM) is reported as 96%, the “Activity Remaining, %” value (human kidney TPMT Peak I; human kidney TPMT Peak I, 1 mM) is reported as 97% and the “Activity Remaining, %” value (T84 cell TPMT [2]; T84 cell 100,000×g supernatant, 1 mM) is reported as 95%. The “Activity Remaining, %” value ([3]; COS-1 cells transfected with T84 TPMT cDNA, 1 mM) was 96%, the “effect on TPMT activity (in words)” value (TPMT [4]) was “not affected” and the “inhibition of catechol O-methyltransferase (in words)” value [6] was “an inhibitor of catechol O-methyltransferase”.

In the case of `CC(N)c1cccc(Cl)c1Cl` (stereo not drawn) [DCMB, 2,3-dichloro-α-methylbenzylamine], the remaining activity at 1000 µM [1, 14] is reported as 95%, the remaining activity at 1000 µM (human kidney TPMT Peak I; [14]) is reported as 95% and the remaining activity at 1000 µM (T84 cell TPMT [2]; [14]) is reported as 99%. The remaining activity at 1000 µM [3, 14] was 95%, the “effect on TPMT activity (in words)” value (TPMT [4]) was “not affected” and the “inhibition of thiol methyltransferase (in words)” value [5] was “inhibitors of thiol methyltransferase”.

In the case of `CSc1ncnc2nc[nH]c12` [6-MMP, 6-methylmercaptopurine], the remaining activity at 5000 µM ([1]; human kidney 100,000×g supernatant, 5 mM) is reported as 26%, the remaining activity at 5000 µM (human kidney TPMT Peak I; human kidney TPMT Peak I, 5 mM) is reported as 30% and the remaining activity at 5000 µM (T84 cell TPMT [2]; T84 cell 100,000×g supernatant, 5 mM) is reported as 27%. For the same molecule, the remaining activity at 5000 µM ([3]; COS-1 cells transfected with T84 TPMT cDNA, 5 mM) was 29% and the “effect on TPMT activity (in words)” value (TPMT [4]) was “inhibited”.

`CCN(CC)Cc1cc(Nc2ccnc3cc(Cl)ccc23)ccc1O` [Amodiaquine] showed a remaining activity at 1000 µM ([1]; human kidney 100,000×g supernatant, 1 mM, read-out: Activity Remaining, %) of 97%, a remaining activity at 1000 µM (human kidney TPMT Peak I; human kidney TPMT Peak I, 1 mM, read-out: Activity Remaining, %) of 90% and a remaining activity at 1000 µM (T84 cell TPMT [2]; T84 cell 100,000×g supernatant, 1 mM, read-out: Activity Remaining, %) of 96%. The remaining activity at 1000 µM ([3]; COS-1 cells transfected with T84 TPMT cDNA, 1 mM, read-out: Activity Remaining, %) was 95%, the “effect on TPMT activity (in words)” value (TPMT [4]) was “not affected” and the “inhibition of histamine N-methyltransferase (in words)” value [7] was “an inhibitor of histamine N-methyltransferase”.

For `C[S+](CC[C@H](N)C(=O)O)C[C@H]1O[C@@H](n2cnc3c(N)ncnc32)[C@H](O)[C@@H]1O` (stereo partly drawn) [Ado-Met, S-adenosyl-L-methionine], the Km (human kidney TPMT; read-out: Apparent Km value for Ado-Met) is given as 2.7 µM.

In the case of `Cn1cnc([N+](=O)[O-])c1Sc1ncnc2nc[nH]c12` [azathioprine], the “risk of myelosuppression (in words)” value [8] is given as “even more at risk for the occurrence of severe myelosuppression; also recorded: greatly increased risk for the development of life-threatening thiopurine-induced myelosuppression” and the “substrate for TPMT (in words)” value (TPMT [9]) is given as “substrates for TPMT”.

B1: T84 cell TPMT (Homo sapiens) (protein)
chain: T1 sequence (P51580 1-245)
In the case of B1, the “pH Optimum” value (T84 cell TPMT [10]) is given as 6.5, the “pH Optimum” value (human kidney TPMT) is given as 6.5 and the “stability of TPMT activity (in words)” value [11] is given as “stable”. It also gave a Km [12] of 5.1 µM and a Km [13] of 710 µM.
